Consider five compounds from article PMC10785800, “Molecular Basis for Inhibition of Heparanases and β-Glucuronidases by Siastatin B” (Journal of the American Chemical Society, 2023).

Structures are written as SMILES. Like-named read-outs stand apart in the source and are kept apart here.

As a reminder, the IC50 is the concentration that inhibits the measured activity by half.

The target of data set [1] is T1, E. coli β-glucuronidase (EcGusB) (Escherichia coli, UniProt P05804).
T1 construct: made in house; host or cells: E. coli BL21 Gold (DE3)
T1 sequence (P05804 whole entry): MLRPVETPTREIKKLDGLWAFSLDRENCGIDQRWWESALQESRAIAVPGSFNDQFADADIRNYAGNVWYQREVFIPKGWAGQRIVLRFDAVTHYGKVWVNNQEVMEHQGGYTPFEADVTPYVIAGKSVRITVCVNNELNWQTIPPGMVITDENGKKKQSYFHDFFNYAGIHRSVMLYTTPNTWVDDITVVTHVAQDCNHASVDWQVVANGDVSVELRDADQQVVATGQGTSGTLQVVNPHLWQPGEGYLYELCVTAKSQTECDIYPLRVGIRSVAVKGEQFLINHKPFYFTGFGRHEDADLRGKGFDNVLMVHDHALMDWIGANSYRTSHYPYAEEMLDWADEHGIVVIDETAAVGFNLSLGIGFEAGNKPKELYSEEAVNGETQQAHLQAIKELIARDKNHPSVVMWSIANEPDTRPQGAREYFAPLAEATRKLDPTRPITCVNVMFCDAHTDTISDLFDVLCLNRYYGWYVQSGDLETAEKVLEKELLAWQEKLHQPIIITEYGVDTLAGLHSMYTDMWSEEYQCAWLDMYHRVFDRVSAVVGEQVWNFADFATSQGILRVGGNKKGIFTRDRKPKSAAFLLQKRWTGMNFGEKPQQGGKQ
Briefly: Inhibition of EcGusB hydrolysis of 4-methylumbelliferyl glucuronide (MU-GlcUA). As to conditions: for Ki: fluorogenic substrate MU-GlcUA, McIllvane buffer pH 5.0, competitive inhibition model. Type of data set: biochemical. From the text:
(§1) To assess the potency of the synthesized 1-N-iminosugars, we first turned to the exo-acting β-glucuronidases AcGH79 and EcGusB, whose activity can be readily monitored with the use of the fluorogenic substrate 4-methylumbelliferyl glucuronide (MU-GlcUA). As these β-glucuronidases belong to different families–AcGH79 to the GH79 family and EcGusB to the GH2 family[46]—assessing inhibition with these enzymes also gives some insights into the applicability of these molecules. All four synthesized compounds (8–11) are able to inhibit both enzymes (see Table 1, Figures S5 and S6).
Figure S6. Inhibition kinetics of EcGusB treated with synthetic inhibitors. The inhibition constants for EcGusB treated with A) 11, B) 9, C) 10, and D) 8 were determined. Michaelis-Menten saturation curves were determined in the presence of various concentration of inhibitor (left panel). These curves were fit to a hyperbolic equation, resulting in a Michaelis constant (KM). The KM values were then plotted against the inhibitor concentration (right panel). A linear fit of this plot was then used to determine the inhibition constant (KI).
(§2) (1 picture or pasted object on this page, not shown here)
(§3) Initial rates were determined for AcGH79 and EcGusB hydrolysis of 4-methylumbelliferyl glucuronide in the presence of varying concentrations either commercial or HPLC purified siastatin B to determine inhibitory IC50 concentrations. Reactions contained 20 mM NaCl, 1 % BSA, 60 mM McIllvane Buffer pH 5.0 and 500 µM 4-methylumbelliferyl glucuronide and 0 – 400 µM siastatin B. Assays were initiated by the addition of enzyme to a final concentration of 2 nM. Fluorescence was monitored using a Clariostar plate reader using an excitation wavelength of 365 nm and emission wavelength of 450 nm.
(§4) Assays were performed in quadruplicate and the variation of initial rates with inhibitor concentration […]
(§5) were fit to the Hill equation: with the software program Origin 2019. A=Amax( kn+ [I]n) To determine inhibition constant (Ki) values, Michaelis-Menten parameters were determined for AcGH79 and EcGusB hydrolysis of 4-methylumbelliferyl glucuronide in reactions containing one of the inhibitors 8, 9, 10 or 11. Assays were initiated by the addition of enzyme to the assay mix containing 0-1 mM 4-methylumbelliferyl glucuronide, 20 mM NaCl, 0.1 % BSA, 60 mM McIllvane Buffer pH
(§6) 5.0. Fluorescence was monitored as above. Michaelis constants were determined for at least 3 different inhibitor concentrations for each different inhibitor. Inhibition constants were calculated according to a competitive inhibition model for both inhibitors using the equation : . All K= K(1+ [I]) […]
(§7) kinetic parameters were fit with the software program Origin 2019. […]
(§8) The Journal of Organic Chemistry 2005, 70, 5207-5214.
(§9) Nat Struct Mol Biol 2015, 22 (12), 1016-1022.
(§10) (7) Winter, G. xia2: an expert system for macromolecular crystallography data reduction. Journal of […]

Data set [2] concerns the target T2, Acidobacterium capsulatum β-glucuronidase (AcGH79) (Acidobacterium capsulatum, UniProt C1F2K5).
T2 sequence (C1F2K5 1-475): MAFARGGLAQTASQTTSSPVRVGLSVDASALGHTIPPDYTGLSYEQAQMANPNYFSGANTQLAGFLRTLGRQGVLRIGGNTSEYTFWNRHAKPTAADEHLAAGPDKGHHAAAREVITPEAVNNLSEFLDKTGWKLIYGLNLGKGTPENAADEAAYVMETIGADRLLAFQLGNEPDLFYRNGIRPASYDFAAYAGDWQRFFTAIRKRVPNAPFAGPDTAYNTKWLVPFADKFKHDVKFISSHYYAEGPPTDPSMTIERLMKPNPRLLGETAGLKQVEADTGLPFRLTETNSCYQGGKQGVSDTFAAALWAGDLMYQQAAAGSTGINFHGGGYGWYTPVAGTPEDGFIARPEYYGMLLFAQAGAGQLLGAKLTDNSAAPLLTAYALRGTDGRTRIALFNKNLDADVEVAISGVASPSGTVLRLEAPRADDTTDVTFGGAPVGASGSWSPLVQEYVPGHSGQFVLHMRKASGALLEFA
Briefly: Inhibition of AcGH79 hydrolysis of 4-methylumbelliferyl glucuronide (MU-GlcUA). The class given is biochemical.
Description: as §1
Figure S5. Inhibition kinetics of AcGH79 treated with synthetic inhibitors. The inhibition constants for AcGH79 treated with A) 11, B) 9, C) 10, and D) 8 were determined. Michaelis-Menten saturation curves were determined in the presence of various concentration of inhibitor (left panel). These curves were fit to a hyperbolic equation, resulting in a Michaelis constant (KM). The KM values were then plotted against the inhibitor concentration (right panel). A linear fit of this plot was then used to determine the inhibition constant (KI).
as §3, §4, §5, §6, §7, §8, §9, §10

For the next data set, the target named is T3, human heparanase (HPSE) (Homo sapiens, UniProt Q9Y251).
T3 construct: endogenous in cells; host or cells: human platelets (lysate)
T3 sequence (Q9Y251 36-543): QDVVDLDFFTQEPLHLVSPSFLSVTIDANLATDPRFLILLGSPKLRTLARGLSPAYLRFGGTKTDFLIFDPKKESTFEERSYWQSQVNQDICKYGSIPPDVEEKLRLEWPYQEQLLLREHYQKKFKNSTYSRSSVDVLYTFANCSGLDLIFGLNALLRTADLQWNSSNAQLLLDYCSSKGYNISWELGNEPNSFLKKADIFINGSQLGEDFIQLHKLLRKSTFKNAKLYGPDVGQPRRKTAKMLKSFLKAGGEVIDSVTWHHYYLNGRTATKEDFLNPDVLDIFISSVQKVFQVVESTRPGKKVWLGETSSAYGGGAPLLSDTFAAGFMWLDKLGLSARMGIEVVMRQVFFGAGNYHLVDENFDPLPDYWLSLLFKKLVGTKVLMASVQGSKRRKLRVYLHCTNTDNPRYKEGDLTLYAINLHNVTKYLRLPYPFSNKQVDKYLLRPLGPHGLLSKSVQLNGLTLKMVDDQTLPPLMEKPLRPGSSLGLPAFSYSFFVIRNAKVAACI
Briefly: Competitive activity-based protein profiling (cABPP) of HPSE in platelet lysate. Type of data set: biochemical. As to conditions: cABPP with ABP VB-A69 100 nM, pH 5.0, 1 h preincubation at 37°C. From the text: (§11) We next examined whether the synthetic 1-N-iminosugars could inhibit HPSE and human β-glucuronidase. To assess the potency of these inhibitors, we used a competitive activity-based protein profiling (cABPP) assay, that measures the ability of the inhibitor to reduce fluorescent labeling of an enzyme by a fluorescent pan-β-glucuronidase activity-based probe (ABP).[16],[34] Using this cABPP assay, we can simultaneously monitor the inhibition of HPSE and GUSB that are both present in platelet lysates.[6],[29] […] The IC50’s determined for HPSE were greater than that observed for GUSB, which is anticipated for monomer-like inhibitors acting on multisubsite endo-acting enzymes. […] However, the trend that inhibition was improved with the removal of the 3-geminal diol was maintained for both GUSB and HPSE.
(§12) Figure 3 Competitive ABPP of platelet lysate with synthetic iminosugars. Iminosugars 8–11 inhibit both GusB and HPSE present in human platelet lysate. Quantitated fluorescence plots used to determine IC50 values are available in Figure S7. Full length gel images and replicates are available in Figure S8, and Coomassie stained gels are available in Figure S9.
(§13) Figure S7. Inhibition of HPSE and GusB in human platelet lysates by inhibitors 8, 9, 10 and 11. A […]
(§14) normalized quantitated band intensities for HPSE against inhibitor concentration. […]
(§15) Xray diffraction data were collected at 100 K at beamlines i03, i04 and i04-1 of the Diamond Light Source UK. Reflections were autoprocessed using the XIA2 pipeline7. Complexes were solved by directly refining against their unliganded structures where solved using molecular replacement with PHASER4 (search model PDB accessions 5E98 (HPSE), 3VNY (AcGH79), 3K46 (EcGUSB)). Solved […]
(§16) refinement using COOT8 and REFMAC59 respectively. Ligand coordinates were built using jLigand10.
(§17) Diagrams were generated using PyMOL (Delano Scientific). cABPP Labelling experiments:
(§18) ABP labelling reactions were carried out in McIlvaine buffer (pH 5.0), 300 mM NaCl. Labeling reactions were initiated by the addition of ABP VB-A69 to a final concentration of 100 nM, before incubation for 30 min at 37°C with shaking. Following labeling, samples were denatured by boiling with Laemmli buffer for 5 min and resolved by SDS-PAGE. […]
(§19) For competitive ABPP (cABPP) experiments, platelet lysates were preincubated with inhibitor (or buffer only control) in McIlvaine buffer (pH 5.0), 300 mM NaCl for 1 h at 37°C with shaking. […] For quantitative measurements, fluorescently labeled the band intensities were calculated using Imagequant (Cytiva), and normalized to the corresponding band in the inhibitor free control lane. IC50 concentrations were determined by fitting data to the Hill equation: […]

The target of data set [3] is T4, human β-glucuronidase (HsGUSB) (Homo sapiens, UniProt P08236).
T4 construct: endogenous in cells; host or cells: human platelets (lysate)
T4 sequence (P08236 23-651): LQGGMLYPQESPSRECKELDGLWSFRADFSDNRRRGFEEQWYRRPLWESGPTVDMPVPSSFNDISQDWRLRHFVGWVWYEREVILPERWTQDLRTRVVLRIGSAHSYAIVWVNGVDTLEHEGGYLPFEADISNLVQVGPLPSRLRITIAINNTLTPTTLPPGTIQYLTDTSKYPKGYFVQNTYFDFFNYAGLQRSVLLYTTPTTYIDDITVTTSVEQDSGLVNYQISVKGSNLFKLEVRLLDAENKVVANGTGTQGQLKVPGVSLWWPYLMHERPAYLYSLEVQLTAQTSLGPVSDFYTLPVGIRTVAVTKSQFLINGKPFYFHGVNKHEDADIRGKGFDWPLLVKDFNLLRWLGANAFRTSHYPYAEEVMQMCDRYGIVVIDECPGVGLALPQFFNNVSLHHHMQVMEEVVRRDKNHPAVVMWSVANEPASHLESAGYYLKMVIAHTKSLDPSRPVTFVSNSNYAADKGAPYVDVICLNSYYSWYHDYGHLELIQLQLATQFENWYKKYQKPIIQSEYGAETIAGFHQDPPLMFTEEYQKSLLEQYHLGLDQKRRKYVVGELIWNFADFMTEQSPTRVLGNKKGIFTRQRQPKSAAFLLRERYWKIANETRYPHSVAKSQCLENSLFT
Briefly: Competitive activity-based protein profiling (cABPP) of GUSB in platelet lysate. The conditions noted are these: cABPP with ABP VB-A69 100 nM, pH 5.0, 1 h preincubation at 37°C. The class given is biochemical.
Description: as §11, §12, §13, §14, §15, §16, §17, §18, §19

Data set [4] can be described thus: Stability of siastatin B by 1H NMR. The class given is physicochemical. Here is the method:
To determine how siastatin B inhibits β-glucuronidases, we first sought to determine whether inhibition was due to the presence of contaminants from either the commercial material or degradation products resulting from prolonged incubation in an aqueous solution or in the presence of a β-glucuronidase.
Supplemental Figures and Tables
Figure S1. Stability of siastatin B. A) 1H NMR experiment showing siastatin B (2 mg) in D2O phosphate buffer (50 mM, 300 mM NaCl, pH 5.0), taken for two different time points (t=0 min and after 18 h). B) Prolonged incubation of siastatin B with recombinant human heparanase. 1H NMR spectra were taken before and after prolonged incubation with 1.2 µM of recombinant human heparanase. The x-axis of […]
as §2

Setting [5] is: fluorogenic substrate MU-GlcUA, McIllvane buffer pH 5.0, competitive inhibition model, read-out: AcGH79 Ki.
Setting [6] is: 500 µM MU-GlcUA, 0–400 µM siastatin B, pH 5.0.

On to `O=C(O)[C@H]1CNCC(O)(O)[C@H]1O` [compound 8], for which the figures for the Ki in data set [1] and in data set [2] (setting [5]) were 137 ± 3 µM and 5.8 ± 0.5 µM, respectively. For the same compound, the IC50 is 27 ± 3 µM on human heparanase (HPSE) and 4 ± 2 µM in data set [3].
For `O=C(O)[C@H]1CNCC(O)(O)[C@@H]1O` [compound 9], the Ki came out at 28 ± 1 µM in data set [1] and 0.52 ± 0.03 µM in data set [2] (MU-GlcUA substrate, read-out: inhibition constant for AcGH79). Further, the half-maximal inhibitory concentration (IC50) at human heparanase (HPSE) worked out at 200 ± 80 µM; in data set [3], 1.7 ± 0.2 µM.
On to `O=C(O)[C@H]1CNC[C@@H](O)[C@H]1O` [compound 10, galacturonic acid isofagomine], for which the Ki is 23 ± 3 µM in data set [1] and 1.5 ± 0.4 µM in data set [2] (setting [5]). The IC50 was 8 ± 1 µM on human heparanase (HPSE) and 0.7 ± 0.04 µM in data set [3].
Take `O=C(O)[C@H]1CNC[C@@H](O)[C@@H]1O` [compound 11, glucuronic acid isofagomine]: the values for the Ki in data set [1] and in data set [2] (setting [5]) were 1.5 ± 0.3 µM and 0.022 ± 0.003 µM, respectively. The IC50 at human heparanase (HPSE) is 80 ± 20 µM; in data set [3], 0.6 ± 0.06 µM.
On to `CC(=O)N[C@H]1NC[C@H](C(=O)O)[C@H](O)[C@@H]1O` [siastatin B, Siastatin B], for which the “stability in aqueous buffer (NMR)” value in data set [4] (D2O phosphate buffer 50 mM, 300 mM NaCl, pH 5.0, 18 h) is reported as “no contaminating peaks appeared”. For the same compound, in data set [4] (heparanase 1.2 μM), the “stability on prolonged incubation with recombinant human heparanase (1H NMR)” value is given as “very minor additional peaks in the 3.2–3.0 range, with no loss in the starting peaks observed”. In data set [1] (setting [6]), the “inhibition of EcGusB by HPLC-purified material compared with commercial siastatin B” value is “inhibited less”. Further, in data set [2] (setting [6]), the “inhibition of AcGH79 by HPLC-purified material compared with commercial siastatin B” value was “inhibited less”.
